Experimental data: patent US20100048521A1, “COMBINATION OF A GLUCO-KORTICOID AND BETA-CYCLODEXTRIN CONJUGATED VITAMIN A-DERIVATE COMPLEX” (priority 2006, published 2010)

System: skin (epidermis+dermis) of healthy female volunteers
Assay: Comparative study of skin atrophy: skin thickness and density by ultrasound (Dermascan C) after topical treatment of the inner arm
Assay type: in vivo, human
Source text: Comparative Study of Hydrocortisone and Hydrocortisone Combined with β-cyclodextrin Conjugated Retinyl Palmitate Complex with Respect to the Development of Skin Atrophy
The study was run according to the protocol described below and was approved by the local regional ethics committee before the study was initiated.
The study included 10 healthy female volunteers. The average age was 43.2 years. They received treatment with hydrocortisone cream 1% on the inner part of one arm (right or left) once daily for 4 weeks. […] On the opposite arm they were treated with hydrocortisone cream 1% and after 10 minutes Nourella Cream containing β-cyclodextrin conjugated retinyl palmitate complex was applied (Pharma Medico; Aarhus, Denmark). Treatments were randomized so that half of the participants treated the right arm with hydrocortisone and the left with the combination and vice versa.
The skin was inspected clinically in the beginning and at the end of the study and objective measurement of the skin thickness and density was done by ultrasound (Dermascan C).

[1] = after 4 weeks of once daily topical treatment, inner arm, ultrasound, ns

C[C@]12CCC(=O)C=C1CC[C@@H]1[C@@H]2[C@@H](O)C[C@@]2(C)[C@H]1CC[C@]2(O)C(=O)CO [Hydrocortisone, hydrocortisone]
Average reduction of skin thickness (epidermis+dermis) (4 weeks once daily topical, change vs baseline, p=0.07 between arms): 15% | Skin density, After 4 weeks [1]: 1830.0 ns pixel | Skin thickness, After 4 weeks [1]: 0.954 ns mm | Development of low echogenic dark areas (dermis density) (after 4 weeks of treatment, ultrasound, p=0.08): Low echogenic dark areas develop | Cross-section of the skin: thickness and density vs baseline (figure) (after treatment for 4 weeks, ultrasound picture): The skin gets thinner and the density decrease | Skin density, Baseline (baseline, before treatment, inner arm, ultrasound): 1503.5 pixel | Skin thickness, Baseline (baseline, before treatment, inner arm, ultrasound, 10 healthy female volunteers): 1.122 mm | Skin atrophy (used for 4 weeks, FIG. 1 and FIG. 2): significant skin atrophy
